From ChEMBL document CHEMBL5223117, “Synthesis and biological evaluation of novel N, N'-diarylurea derivatives as potent antibacterial agents against MRSA” (Bioorg Med Chem Lett, 2022)
Values after ≈ are worked out from the molar mass of the structure shown. Active and inactive are the calls of the source. No cut-off for these calls is given here.

Assays:
[1] = system: Staphylococcus aureus; experiment: Antibacterial activity against methicillin sensitive Staphylococcus aureus 15; assay type: functional
[2] = system: Staphylococcus aureus; experiment: Antibacterial activity against methicillin sensitive Staphylococcus aureus 20-12; assay type: functional
[3] = system: Staphylococcus aureus; experiment: Antibacterial activity against vancomycin intermediate and methicillin resistant Staphylococcus aureus ATCC 700698; assay type: functional
[4] = system: Staphylococcus aureus; experiment: Antibacterial activity against methicillin resistant Staphylococcus aureus 18-2; assay type: functional
[5] = system: Staphylococcus aureus; experiment: Antibacterial activity against methicillin sensitive Staphylococcus aureus ATCC 33591; assay type: functional
[6] = system: Staphylococcus epidermidis; experiment: Antibacterial activity against methicillin resistant Staphylococcus epidermidis 19-2; assay type: functional
[7] = system: Staphylococcus aureus; experiment: Antibacterial activity against methicillin resistant Staphylococcus aureus 20-11; assay type: functional
[8] = system: Staphylococcus aureus; experiment: Antibacterial activity against methicillin resistant Staphylococcus aureus ATCC 43300; assay type: functional
[9] = system: Staphylococcus epidermidis; experiment: Antibacterial activity against methicillin sensitive Staphylococcus epidermidis ATCC 12228; assay type: functional
[10] = system: Staphylococcus aureus; experiment: Antibacterial activity against methicillin sensitive Staphylococcus aureus ATCC 29213; assay type: functional
[11] = system: Staphylococcus epidermidis; experiment: Antibacterial activity against methicillin resistant Staphylococcus epidermidis 19-1; assay type: functional
[12] = system: Staphylococcus aureus; experiment: Antibacterial activity against vancomycin intermediate and methicillin resistant Staphylococcus aureus ATCC 700699; assay type: functional
[13] = system: Staphylococcus epidermidis; experiment: Antibacterial activity against methicillin sensitive Staphylococcus epidermidis 17-13; assay type: functional
[14] = system: Enterococcus faecium; experiment: Antibacterial activity against Vanomycin-resistant Enterococcus faecium 15-6; assay type: functional
[15] = system: Enterococcus faecium; experiment: Antibacterial activity against Vanomycin-resistant Enterococcus faecium ATCC 700221; assay type: functional
[16] = system: Enterococcus faecalis; experiment: Antibacterial activity against Vanomycin-resistant Enterococcus faecalis ATCC 51299; assay type: functional
[17] = system: Enterococcus faecalis; experiment: Antibacterial activity against Vanomycin-resistant Enterococcus faecalis ATCC 51575; assay type: functional
[18] = system: Enterococcus faecium; experiment: Antibacterial activity against Vanomycin-resistant Enterococcus faecium ATCC 51559; assay type: functional
[19] = Cytotoxicity against human HepG2 cells by SRB assay; assay type: toxicity, cell-based
[20] = Cytotoxicity against human HeLa cells by SRB assay; assay type: toxicity, cell-based

SMILES	MIC [1]	MIC [2]	MIC [3]	MIC [4]	MIC [5]	MIC [6]	MIC [7]	MIC [8]	MIC [9]	MIC [10]	MIC [11]	MIC [12]	MIC [13]	MIC [14]	MIC [15]	MIC [16]	MIC [17]	MIC [18]	IC50 [19]	IC50 [20]
CNC(=O)c1cc(Oc2ccc(NC(=O)N3CCN(c4ccc(Cl)c(C(F)(F)F)c4)C3=O)cc2)ccn1	inactive	inactive	inactive	inactive	inactive	inactive	inactive	inactive	inactive	inactive	inactive	inactive	inactive							
C[C@H]1COc2c(N3CCN(C)CC3)c(F)cc3c(=O)c(C(=O)O)cn1c23 [LEVOFLOXACIN]	0.69 µM (≈ 0.249 µg/mL)	1.38 µM (≈ 0.499 µg/mL)	22.1 µM (≈ 8 µg/mL)	177 µM (≈ 64 µg/mL)	0.69 µM (≈ 0.249 µg/mL)	11.1 µM (≈ 4 µg/mL)	1.38 µM (≈ 0.499 µg/mL)	1.38 µM (≈ 0.499 µg/mL)	0.69 µM (≈ 0.249 µg/mL)	0.69 µM (≈ 0.249 µg/mL)	11.1 µM (≈ 4 µg/mL)	22.1 µM (≈ 8 µg/mL)	0.69 µM (≈ 0.249 µg/mL)	177 µM (≈ 64 µg/mL)	177 µM (≈ 64 µg/mL)	1.38 µM (≈ 0.499 µg/mL)	2.77 µM (≈ 1 µg/mL)	88.5 µM (≈ 32 µg/mL)		
CN(C(=O)Nc1cccc(Cl)c1F)c1ccc(Cl)c(C(F)(F)F)c1	inactive	inactive	inactive	inactive	inactive	inactive	inactive	inactive	inactive	inactive	inactive	inactive	inactive							
CNC(=O)c1cc(Oc2ccc(N3CCN(c4ccc(Cl)c(C(F)(F)F)c4)C3=O)cc2)ccn1	inactive		inactive			inactive	inactive	inactive	inactive	inactive	inactive	inactive	inactive							
CN(C(=O)Nc1ccc(Cl)c(C(F)(F)F)c1)c1cccc(Cl)c1F	inactive	inactive	inactive	inactive	inactive	inactive	inactive	inactive	inactive	inactive	inactive	inactive	inactive							
O=C(Nc1ccc(Cl)c(C(F)(F)F)c1)Nc1cc(Cl)ccc1F	1.36 µM (≈ 0.499 µg/mL)	2.72 µM (≈ 0.999 µg/mL)	1.36 µM (≈ 0.499 µg/mL)	1.36 µM (≈ 0.499 µg/mL)	2.72 µM (≈ 0.999 µg/mL)	2.72 µM (≈ 0.999 µg/mL)	2.72 µM (≈ 0.999 µg/mL)	2.72 µM (≈ 0.999 µg/mL)	2.72 µM (≈ 0.999 µg/mL)	2.72 µM (≈ 0.999 µg/mL)	2.72 µM (≈ 0.999 µg/mL)	1.36 µM (≈ 0.499 µg/mL)	2.72 µM (≈ 0.999 µg/mL)	2.72 µM (≈ 0.999 µg/mL)	2.72 µM (≈ 0.999 µg/mL)	5.45 µM (≈ 2 µg/mL)	5.45 µM (≈ 2 µg/mL)	2.72 µM (≈ 0.999 µg/mL)		
CNC(=O)c1cc(Oc2ccc(NC(=O)Nc3cccc(C(F)(F)F)c3)cc2)ccn1	149 µM (≈ 64 µg/mL)		inactive			inactive	inactive	inactive	149 µM (≈ 64 µg/mL)	inactive	149 µM (≈ 64 µg/mL)	inactive	inactive							
O=C(Nc1ccc(C(F)(F)F)cc1)Nc1ccc(Cl)c(C(F)(F)F)c1	10.4 µM (≈ 4 µg/mL)	20.9 µM (≈ 8 µg/mL)	20.9 µM (≈ 8 µg/mL)	10.4 µM (≈ 4 µg/mL)	10.4 µM (≈ 4 µg/mL)	10.4 µM (≈ 4 µg/mL)	20.9 µM (≈ 8 µg/mL)	20.9 µM (≈ 8 µg/mL)	20.9 µM (≈ 8 µg/mL)	20.9 µM (≈ 8 µg/mL)	10.4 µM (≈ 4 µg/mL)	10.4 µM (≈ 4 µg/mL)	20.9 µM (≈ 8 µg/mL)	20.9 µM (≈ 8 µg/mL)	41.8 µM (≈ 16 µg/mL)	41.8 µM (≈ 16 µg/mL)	20.9 µM (≈ 8 µg/mL)	41.8 µM (≈ 16 µg/mL)		
O=C(Nc1ccc(OC(F)F)cc1)Nc1ccc(Cl)c(C(F)(F)F)c1	0.66 µM (≈ 0.251 µg/mL)	10.5 µM (≈ 4 µg/mL)	1.31 µM (≈ 0.499 µg/mL)	5.25 µM (≈ 2 µg/mL)	10.5 µM (≈ 4 µg/mL)	10.5 µM (≈ 4 µg/mL)	0.66 µM (≈ 0.251 µg/mL)	10.5 µM (≈ 4 µg/mL)	10.5 µM (≈ 4 µg/mL)	10.5 µM (≈ 4 µg/mL)	5.25 µM (≈ 2 µg/mL)	0.66 µM (≈ 0.251 µg/mL)	2.63 µM (≈ 1 µg/mL)	21 µM (≈ 8 µg/mL)	21 µM (≈ 8 µg/mL)	inactive	inactive	21 µM (≈ 8 µg/mL)		
O=C(Nc1ccc(F)cc1)Nc1ccc(Cl)c(C(F)(F)F)c1	6.01 µM (≈ 2 µg/mL)	12 µM (≈ 4 µg/mL)	12 µM (≈ 4 µg/mL)	6.01 µM (≈ 2 µg/mL)	6.01 µM (≈ 2 µg/mL)	6.01 µM (≈ 2 µg/mL)	12 µM (≈ 4 µg/mL)	12 µM (≈ 4 µg/mL)	6.01 µM (≈ 2 µg/mL)	12 µM (≈ 4 µg/mL)	6.01 µM (≈ 2 µg/mL)	3.01 µM (≈ 1 µg/mL)	6.01 µM (≈ 2 µg/mL)	48.1 µM (≈ 16 µg/mL)	48.1 µM (≈ 16 µg/mL)	192 µM (≈ 64 µg/mL)	192 µM (≈ 64 µg/mL)	96.2 µM (≈ 32 µg/mL)		
O=C(Nc1ccc(Cl)c(C(F)(F)F)c1)Nc1cc(Cl)c(F)cc1F	1.3 µM (≈ 0.501 µg/mL)	2.6 µM (≈ 1 µg/mL)	2.6 µM (≈ 1 µg/mL)	2.6 µM (≈ 1 µg/mL)	1.3 µM (≈ 0.501 µg/mL)	1.3 µM (≈ 0.501 µg/mL)	2.6 µM (≈ 1 µg/mL)	2.6 µM (≈ 1 µg/mL)	2.6 µM (≈ 1 µg/mL)	2.6 µM (≈ 1 µg/mL)	2.6 µM (≈ 1 µg/mL)	2.6 µM (≈ 1 µg/mL)	2.6 µM (≈ 1 µg/mL)	5.19 µM (≈ 2 µg/mL)	5.19 µM (≈ 2 µg/mL)	20.8 µM (≈ 8 µg/mL)	10.4 µM (≈ 4 µg/mL)	5.19 µM (≈ 2 µg/mL)		
O=C1N(c2ccc(O)cc2)CCN1c1ccc(Cl)c(C(F)(F)F)c1	inactive		inactive			inactive	inactive	inactive	inactive	inactive	inactive	inactive	inactive							
O=C(Nc1ccc(OC(F)(F)F)cc1)N1CCN(c2ccc(Cl)c(C(F)(F)F)c2)C1=O	inactive	inactive	inactive	inactive	inactive	inactive	inactive	inactive	inactive	inactive	inactive	inactive	inactive						100 µM	100 µM
O=C(Nc1ccc(Cl)c(F)c1)Nc1ccc(Cl)c(C(F)(F)F)c1	2.72 µM (≈ 0.999 µg/mL)	2.72 µM (≈ 0.999 µg/mL)	2.72 µM (≈ 0.999 µg/mL)	2.72 µM (≈ 0.999 µg/mL)	1.36 µM (≈ 0.499 µg/mL)	1.36 µM (≈ 0.499 µg/mL)	2.72 µM (≈ 0.999 µg/mL)	2.72 µM (≈ 0.999 µg/mL)	2.72 µM (≈ 0.999 µg/mL)	2.72 µM (≈ 0.999 µg/mL)	1.36 µM (≈ 0.499 µg/mL)	1.36 µM (≈ 0.499 µg/mL)	2.72 µM (≈ 0.999 µg/mL)	10.9 µM (≈ 4 µg/mL)	5.45 µM (≈ 2 µg/mL)	21.8 µM (≈ 8 µg/mL)	10.9 µM (≈ 4 µg/mL)	10.9 µM (≈ 4 µg/mL)		
CNC(=O)c1cc(Oc2ccc(NC(=O)Nc3cc(C(F)(F)F)ccc3Cl)cc2)ccn1	inactive		inactive			inactive	inactive	inactive	inactive	inactive	inactive	inactive	inactive							
O=C(Nc1ccc2c(c1)OCO2)Nc1ccc(Cl)c(C(F)(F)F)c1	22.3 µM (≈ 8 µg/mL)		44.6 µM (≈ 16 µg/mL)			22.3 µM (≈ 8 µg/mL)	44.6 µM (≈ 16 µg/mL)	357 µM (≈ 128 µg/mL)	22.3 µM (≈ 8 µg/mL)	44.6 µM (≈ 16 µg/mL)	22.3 µM (≈ 8 µg/mL)	22.3 µM (≈ 8 µg/mL)	22.3 µM (≈ 8 µg/mL)							
O=C(Nc1ccc(Cl)c(C(F)(F)F)c1)Nc1cc(F)c(F)cc1Cl	1.3 µM (≈ 0.501 µg/mL)	1.3 µM (≈ 0.501 µg/mL)	1.3 µM (≈ 0.501 µg/mL)	1.3 µM (≈ 0.501 µg/mL)	0.65 µM (≈ 0.25 µg/mL)	0.65 µM (≈ 0.25 µg/mL)	1.3 µM (≈ 0.501 µg/mL)	1.3 µM (≈ 0.501 µg/mL)	1.3 µM (≈ 0.501 µg/mL)	1.3 µM (≈ 0.501 µg/mL)	1.3 µM (≈ 0.501 µg/mL)	0.65 µM (≈ 0.25 µg/mL)	0.65 µM (≈ 0.25 µg/mL)	2.6 µM (≈ 1 µg/mL)	5.19 µM (≈ 2 µg/mL)	10.4 µM (≈ 4 µg/mL)	10.4 µM (≈ 4 µg/mL)	5.19 µM (≈ 2 µg/mL)		
CNC(=O)c1cc(Oc2ccc(NC(=O)Nc3ccc(Cl)c(C(F)(F)F)c3)cc2)ccn1 [SORAFENIB]	4.3 µM (≈ 2 µg/mL)	8.61 µM (≈ 4 µg/mL)	17.2 µM (≈ 8 µg/mL)	17.2 µM (≈ 8 µg/mL)	8.61 µM (≈ 4 µg/mL)	4.3 µM (≈ 2 µg/mL)	8.61 µM (≈ 4 µg/mL)	17.2 µM (≈ 8 µg/mL)	4.3 µM (≈ 2 µg/mL)	8.61 µM (≈ 4 µg/mL)	4.3 µM (≈ 2 µg/mL)	4.3 µM (≈ 2 µg/mL)	8.61 µM (≈ 4 µg/mL)	275 µM (≈ 128 µg/mL)	275 µM (≈ 128 µg/mL)	275 µM (≈ 128 µg/mL)	275 µM (≈ 128 µg/mL)	275 µM (≈ 128 µg/mL)		3.31 µM
COc1ccc(NC(=O)Nc2ccc(Cl)c(C(F)(F)F)c2)cc1	inactive		inactive			inactive	inactive	inactive	inactive	inactive	inactive	inactive	inactive							
CNC(=O)c1cc(Oc2ccc(NC(=O)Nc3cc(C(F)(F)F)ccc3OC)cc2)ccn1	inactive		inactive			inactive	inactive	inactive	inactive	inactive	inactive	inactive	inactive							
